In patent US20230406803A1, “TROPOLONE DERIVATIVES AND TAUTOMERS THEREOF FOR IRON REGULATION IN ANIMALS” (Kinesid Therapeutics, Inc, priority 2020, published 2023):
Marks after values point to notes of the source that are not given here.

Key:
[1] = test system: mouse model of turpentine oil (TO)-induced anemia of inflammation; assay: Turpentine oil induced anemia of inflammation; type: in vivo; conditions: PO, hinokitiol as comparator in the respective studies
Experimental: Assay 3: Turpentine Oil Induced Anemia of Inflammation This is a model of anemia of inflammation by turpentine oil injection in combination with phlebotomy. Conditioning: Mice receive 3 doses of turpentine oil subcutaneously within 2 weeks. Mice are anesthetized and then administered 0.1 mL/20 g body weight of turpentine oil (TO) via subcutaneous injection in the scapular fat area using syringe and 27 G needle on Day 1, 7, and 14. On day 14, after the final injection of turpentine oil, a controlled 10% hemorrhage (approximately 200 uL) is accomplished via anesthetized orbital sinus bleed to increase the magnitude of anemia. The bleeding uses an orbital blood sampling technique, 200 uL capillary bleeding device (essentially a vacutainer tube with a glass capillary tube attached). Clean gauze lightly pre-soaked with sterile saline is held over the eye immediately following hemorrhage to promote hemostasis. Treatment: On day 15, 16 hours post last dose of turpentine oil, sham group and TO plus bleeding group are terminated. These two groups are used as part of control. On day 15, vehicle group and compound treatment groups receive proper vehicle or compounds at a specified dose accordingly, treatments can be oral once a day or oral twice a day. The treatment continues for 7 days, and then is terminated on day 21. On day 21, 3 hours post last treatment of test articles, the vehicle and treatment group are terminated. […] Depth of anesthesia is monitored by toe pinch method. […] Data analysis: The iron mobilization impact of compounds is assessed based on the serum iron level, transferrin saturation and TIBC; the ability of test article to restore normal iron homeostasis and metabolism, and subsequent rescue of anemia, is assessed by comparing the hemoglobin and hematocrit levels of test article treated groups with vehicle treated group. Test articles were evaluated in the described mouse model of turpentine oil (TO)-induced anemia of inflammation (A of I). […]

[2] = Human liver microsomal stability assay; type: in vitro ADME; conditions: human, microsomes
Source text: (§1) Further examples of useful assays include metabolic stability assays, such as but not limited to e.g., liver microsomal clearance assays which provide measurement such as, but not limited to e.g., liver microsomal clearance half-life (t1/2), liver microsomal intrinsic clearance (CLint), and the like. Such measurements are useful in assessing various characteristics of a subject compound, such as e.g., the availability of an intact compound to provide a pharmacological effect. A compound having a longer microsomal clearance half-life (t1/2), e.g., than a reference compound, will provide better exposure of the intact compound and greater availability to produce the relevant pharmacological effect. A compound having a less microsomal clearance, e.g., as measured by liver microsomal intrinsic clearance (CLint), will similarly result in greater exposure of the intact compound available for an increase in the relevant pharmacological effect, e.g., as compared to that of a reference compound with a higher liver microsomal intrinsic clearance (CLint). Other useful assays include in vitro hepatocyte metabolic stability assays.
(§2) Such assessments included human and mouse liver microsomal stability assays as well as 6-hour mouse PK studies.

[3] = Mouse liver microsomal stability assay; type: in vitro ADME; conditions: mouse, microsomes
Source text: as §1, §2

[4] = Mouse 6-hour PK study; conditions: mouse, in vivo
Source text: Useful such assays include, but are not limited to e.g., those measurements made in PK studies, such as rodent and non-human primate PK studies, including e.g., mouse (such as mouse 6-hour PK studies), rat PK studies, cynomolgus or rhesus PK studies, or the like. Useful measurements obtained in such PK studies include but are not limited to e.g., maximum concentration (Cmax) reflecting the “peak” of a drug observed after its administration that can reflect not only the rate but also the extent of absorption, area under the curve (AUC) representing the area under the plot of tissue (e.g., plasma) concentration against time after drug administration which is of particular use in estimating bioavailability of drugs and drug total clearance, half-life (t1/2) or the period of time required for the concentration or amount of drug to be reduced to exactly one-half of a given concentration or amount that indicates the persistence of the drug in its volume of distribution, and the like.
as §2

Compound | half-life [2] | microsomal CLint [2] | half-life [3] | microsomal CLint [3] | AUC(0-t) [4] | Cmax [4] | half-life [4] | Human CLint [2] | Human t1/2 [2] | Mouse CLint [3] | Mouse t1/2 [3] | levels of Hgb compared with hinokitiol [1] | clearance half-life (t1/2) and intrinsic clearance (CLint) as compared to hinokitiol [2] | clearance half-life (t1/2) and intrinsic clearance (CLint) as compared to hinokitiol [3] | mouse 6-hour PK properties as compared to hinokitiol [4]
CC(C)c1ccc(F)c(=O)c(O)c1 [Ex. 1, 7-fluoro-2-hydroxy-4-isopropylcyclohepta-2,4,6-trien-1-one] | 0.417 to 0.833 h | 25 to 50 µL/min/mg | > 2.5 h | < 25 µL/min/mg | 5000 to 20000 ng·h/mL | 5000 to 20000 ng/mL | 1.25 to 4.99 h |  |  |  |  | comparable or higher levels of Hgb than hinokitiol | longer clearance half-life (t1/2) and lower intrinsic clearance (CLint), or both as compared to hinokitiol | longer clearance half-life (t1/2) and lower intrinsic clearance (CLint), or both as compared to hinokitiol | one or more improved mouse 6-hour PK properties as compared to hinokitiol
CC(C)c1cccc(=O)c(O)c1F [Ex. 2, 3-fluoro-2-hydroxy-4-isopropylcyclohepta-2,4,6-trien-1-one] | > 2.5 h | < 25 µL/min/mg | > 2.5 h | < 25 µL/min/mg | 5000 to 20000 ng·h/mL | 5000 to 20000 ng/mL | 1.25 to 4.99 h |  |  |  |  |  | longer clearance half-life (t1/2) and lower intrinsic clearance (CLint), or both as compared to hinokitiol | longer clearance half-life (t1/2) and lower intrinsic clearance (CLint), or both as compared to hinokitiol | one or more improved mouse 6-hour PK properties as compared to hinokitiol
CC(C)c1cccc(F)c(=O)c1O [Ex. 4, 7-fluoro-2-hydroxy-3-isopropylcyclohepta-2,4,6-trien-1-one] | 0.417 to 0.833 h | > 50 µL/min/mg | 0.417 to 0.833 h | 25 to 50 µL/min/mg | > 20000 ng·h/mL | 5000 to 20000 ng/mL | 1.25 to 4.99 h |  |  |  |  |  | longer clearance half-life (t1/2) and lower intrinsic clearance (CLint), or both as compared to hinokitiol | longer clearance half-life (t1/2) and lower intrinsic clearance (CLint), or both as compared to hinokitiol | one or more improved mouse 6-hour PK properties as compared to hinokitiol
O=c1ccccc(OC2CCC2)c1O [Ex. 56, 3-cyclobutoxy-2-hydroxycyclohepta-2,4,6-trien-1-one] | 1.67 to 2.5 h | < 25 µL/min/mg | 0.417 to 0.833 h | 25 to 50 µL/min/mg | 1500 to 5000 ng·h/mL | 1500 to 5000 ng/mL | < 1.25 h |  |  |  |  |  | longer clearance half-life (t1/2) and lower intrinsic clearance (CLint), or both as compared to hinokitiol | longer clearance half-life (t1/2) and lower intrinsic clearance (CLint), or both as compared to hinokitiol | one or more improved mouse 6-hour PK properties as compared to hinokitiol

More lines, main results first:

half-life [2] | microsomal CLint [2] | half-life [3] | microsomal CLint [3] | AUC(0-t) [4] | Cmax [4] | half-life [4] | Human CLint [2] | Human t1/2 [2] | Mouse CLint [3] | Mouse t1/2 [3] | Compound | levels of Hgb compared with hinokitiol [1] | clearance half-life (t1/2) and intrinsic clearance (CLint) as compared to hinokitiol [2] | clearance half-life (t1/2) and intrinsic clearance (CLint) as compared to hinokitiol [3] | mouse 6-hour PK properties as compared to hinokitiol [4]
> 2.5 h | < 25 µL/min/mg | > 2.5 h | < 25 µL/min/mg | > 20000 ng·h/mL | 5000 to 20000 ng/mL | 1.25 to 4.99 h |  |  |  |  | Cc1cccc(F)c(=O)c1O [Ex. 32, 7-fluoro-2-hydroxy-3-methylcyclohepta-2,4,6-trien-1-one] | comparable or higher levels of Hgb than hinokitiol | longer clearance half-life (t1/2) and lower intrinsic clearance (CLint), or both as compared to hinokitiol | longer clearance half-life (t1/2) and lower intrinsic clearance (CLint), or both as compared to hinokitiol | one or more improved mouse 6-hour PK properties as compared to hinokitiol
 |  | > 2.5 h | < 25 µL/min/mg | > 20000 ng·h/mL | > 20000 ng/mL | 1.25 to 4.99 h | 0.00* μL/min/mg protein | ∞* |  |  | O=c1c(F)cccc(C2CCOCC2)c1O [Ex. 36, 7-fluoro-2-hydroxy-3-(tetrahydro-2H-pyran-4-yl)cyclohepta-2,4,6-trien-1-one] |  | longer clearance half-life (t1/2) and lower intrinsic clearance (CLint), or both as compared to hinokitiol | longer clearance half-life (t1/2) and lower intrinsic clearance (CLint), or both as compared to hinokitiol | one or more improved mouse 6-hour PK properties as compared to hinokitiol
 |  |  |  | < 499 ng·h/mL | 500 to 1500 ng/mL | 1.25 to 4.99 h | 0.00* μL/min/mg protein | ∞* | 0.00* μL/min/mg protein | ∞* | O=c1ccc(OC2COC2)ccc1O [Ex. 12, 2-hydroxy-5-(oxetan-3-yloxy)cyclohepta-2,4,6-trien-1-one] |  | longer clearance half-life (t1/2) and lower intrinsic clearance (CLint), or both as compared to hinokitiol | longer clearance half-life (t1/2) and lower intrinsic clearance (CLint), or both as compared to hinokitiol | one or more improved mouse 6-hour PK properties as compared to hinokitiol
0.417 to 0.833 h | 25 to 50 µL/min/mg | 0.417 to 0.833 h | 25 to 50 µL/min/mg | 500 to 1500 ng·h/mL | 1500 to 5000 ng/mL | < 1.25 h |  |  |  |  | O=c1ccccc([C@H]2CCCO2)c1O (single isomer, unassigned) [Ex. 41] |  | longer clearance half-life (t1/2) and lower intrinsic clearance (CLint), or both as compared to hinokitiol | longer clearance half-life (t1/2) and lower intrinsic clearance (CLint), or both as compared to hinokitiol | one or more improved mouse 6-hour PK properties as compared to hinokitiol
0.833 to 1.67 h | < 25 µL/min/mg | 0.417 to 0.833 h | 25 to 50 µL/min/mg | 500 to 1500 ng·h/mL | 1500 to 5000 ng/mL | < 1.25 h |  |  |  |  | O=c1ccccc([C@@H]2CCCO2)c1O (single isomer, unassigned) [Ex. 42] | comparable or higher levels of Hgb than hinokitiol | longer clearance half-life (t1/2) and lower intrinsic clearance (CLint), or both as compared to hinokitiol | longer clearance half-life (t1/2) and lower intrinsic clearance (CLint), or both as compared to hinokitiol | one or more improved mouse 6-hour PK properties as compared to hinokitiol
